This note sets out measurements from PMC7600788, “Sequence Permutation Generates Peptides with Different Antimicrobial and Antibiofilm Activities” (Pharmaceuticals, 2020).

No end group written: not given here. Where only a bound is given, the exact number is not on record here.

Data set [1] concerns E. coli K12. The class given is cell-based, Escherichia coli. The conditions noted are these: K12. In short, it runs like this: (§1)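 Broth microdilution: log-phase cultures diluted to OD600 ~0.001 were treated with two-fold peptide dilutions and incubated overnight at 37 °C, then read at 630 nm. MBC was the lowest concentration giving no growth when wells at or above MIC were plated.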

Data set [2] deals with A. baumannii B28-16. The class given is cell-based, Acinetobacter baumannii. The conditions noted are these: B28-16. In a few lines:
as §1

Data set [3] relates to S. aureus USA300. Format: cell-based, Staphylococcus aureus. The following applies: USA300. In short, it runs like this: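 Broth microdilution: log-phase cultures diluted to OD600 ~0.001 received two-fold serial peptide dilutions and were incubated overnight at 37 °C, with growth read at 630 nm. MBC was the lowest concentration giving no growth when clear wells at or above MIC were plated.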

The subject of data set [4] is Pig RBC. Briefly: Hemolytic assay. The class given is cell-based. In a few lines:
(§2)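 RBCs washed in PBS and used as 2% (v/v) suspension; incubated with peptide 1 h at 37 °C, then centrifuged and haemoglobin release read at 545 nm. Lysis normalised to 2% Triton X-100 (100%) and PBS (0%); HC50 is the peptide concentration giving 50% lysis.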

The subject of data set [5] is chicken red blood cells. Briefly: Hemolytic assay. The class given is cell-based. In a few lines: as §2
The subject of data set [6] is human red blood cells. The data set can be described thus: Hemolytic assay. The class given is cell-based. The following applies: red cells of human. In a few lines:
as §2

For RKIWWWWL [WW295], the “Minimal Inhibitory Concentration (MIC), EC” value in data set [1] came to 6.2 µM. In data set [2], the “Minimal Inhibitory Concentration (MIC), AB” value lay in the range of 6.25 to 12.5 µM. In addition, the “MBC, USA300” value in data set [3] amounted to 12.5 µM. Further, in data set [4], the “Pig RBC, concentration that caused 50% red blood cell lysis (HC50)” value is more than 100 µM. Further, the “Chicken RBC, concentration that caused 50% red blood cell lysis (HC50)” value in data set [5] is on record as 100 µM. Moreover, in data set [6], the “Human RBC, concentration that caused 50% red blood cell lysis (HC50)” value is recorded as 57 µM.
